Assay results: US7105531B2, “Tricyclic protein kinase inhibitors” (WYETH, priority 1999, dated 2006)
Several values for one entry are separate records, joined by “and”; a condition that tells them apart may be missing. Equal entries are not always repeated.

How the values were obtained:
[1] = target: T1, Rat2 fibroblasts transformed with v-Src/Hu c-Src fusion gene (Homo sapiens, UniProt P12931, cells depend on it, form not given); assay: Anchorage independent Src-transformed fibroblast proliferation test procedure; format: cell-based, rat; details: for GI50: rat2 fibroblasts transformed with v-src/hu c-src fusion gene, read-out: Src TF prolif IC50
T1 construct: fused on or other part: The v-Src frame of Rous sarcoma virus: everything outside the catalytic domain, namely the N-terminal unique/SH3/SH2 part; Candidates are Prague C (P00526), then Schmidt-Ruppin A (P00524)
T1 sequence (P12931 whole entry, change not shown, the tested form may be a part): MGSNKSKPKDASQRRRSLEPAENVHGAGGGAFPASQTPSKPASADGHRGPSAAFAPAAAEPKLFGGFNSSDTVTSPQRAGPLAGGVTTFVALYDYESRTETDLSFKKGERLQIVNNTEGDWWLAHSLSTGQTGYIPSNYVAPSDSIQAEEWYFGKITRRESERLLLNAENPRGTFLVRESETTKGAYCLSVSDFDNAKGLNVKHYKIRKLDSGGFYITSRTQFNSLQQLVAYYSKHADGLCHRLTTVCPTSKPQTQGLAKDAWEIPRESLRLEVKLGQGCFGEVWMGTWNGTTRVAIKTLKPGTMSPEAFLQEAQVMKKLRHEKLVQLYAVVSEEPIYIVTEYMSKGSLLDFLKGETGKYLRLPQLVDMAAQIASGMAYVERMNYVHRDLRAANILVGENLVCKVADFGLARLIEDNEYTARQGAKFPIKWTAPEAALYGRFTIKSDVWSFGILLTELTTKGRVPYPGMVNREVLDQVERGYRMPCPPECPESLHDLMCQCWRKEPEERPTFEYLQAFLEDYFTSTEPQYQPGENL
Source text: Anchorage Independent Src-transformed Fibroblast Proliferation Test Procedure: Rat2 fibroblasts stably transformed with a plasmid containing CMV promotor controlled v-Src/Hu c-Src fusion gene in which the catalytic domain of human c-Src is inserted in place of the v-Src catalytic domain in the v-Src gene are used for the measurement of src dependent suspension growth.

Structure (SMILES) | Src TF prolif % Inh ([1]; @ dose 0.22 μM) [%] | melting point | Src TF prolif % Inh ([1]; @ dose 10 μM) [%] | GI50 [1] [nM]
COc1cc(Nc2c(C#N)cnc3c2C=C2N=CN=C2C3)cc(OC)c1OC [Example 42, 8-(3,4,5-Trimethoxyanilino)imidazo[4,5-g]quinoline-7-carbonitrile] | 50 | > 260 °C | – | –
COc1cc(Nc2c(C#N)cnc3cc4c(cc23)ncn4CCN2CCOCC2)c(C)cc1Cl [Example 57, 8-(4-Chloro-5-methoxy-2-methylanilino)-3-[2-(4-morpholinyl)ethyl]-3H-imidazo[4,5-g]quinoline-7-carbonitrile] | – | 246 to 248 °C | 0 | –
COc1cc(Nc2c(C#N)cnc3cc4cc(OCCn5nccn5)c(OC)cc4cc23)c(Cl)cc1Cl [Example 158, 4-(2,4-Dichloro-5-methoxyphenylamino)-7-methoxy-8-(2-[1,2,3]triazol-2-yl-ethoxy)benzo[g]quinoline-3-carbonitrile] | – | – | – | 67
COc1cc(Nc2c(C#N)cnc3cc4cc(OCCn5ccnn5)c(OC)cc4cc23)c(Cl)cc1Cl [Example 159, 4-(2,4-Dichloro-5-methoxyphenylamino)-7-methoxy-8-(2-[1,2,3]triazol-1-yl-ethoxy)benzo[g]quinoline-3-carbonitrile] | – | 245 °C (dec.) | – | 73
COc1cc(Nc2c(C#N)cnc3nc4cc(OC)c(OC)cc4cc23)c(Cl)cc1Cl [Example 165, 4-(2,4-Dichloro-5-methoxyanilino)-7,8-dimethoxybenzo[b][1,8]naphthyridine-3-carbonitrile] | – | 297 °C (dec.) | – | > 10000
COc1cc(Nc2c(C#N)cnc3nc4cc(OCCN5CCOCC5)c(OC)cc4cc23)c(Cl)cc1Cl [Example 173, 4-(2,4-Dichloro-5-methoxyanilino)-7-methoxy-8-[2-(4-morpholinyl)ethoxy]benzo[b][1,8]naphthyridine-3-carbonitrile] | – | 242 to 244 °C (dec.) | – | 3740
CCOc1cc2cc3c(Nc4cc(OC)c(Cl)cc4C)c(C#N)cnc3cc2cc1OCCCl [Example 179, 8-(2-Chloroethoxy)-4-(4-chloro-5-methoxy-2-methylanilino)-7-ethoxybenzo[g]quinoline-3-carbonitrile] | – | 129 to 130 °C | – | –
COc1cc(Nc2c(C#N)cnc3cc4cc(OCCCl)c(OC)cc4cc23)c(Cl)cc1F [Example 180, 8-(2-Chloroethoxy)-4-(2-chloro-4-fluoro-5-methoxyanilino)-7-methoxybenzo[g]quinoline-3-carbonitrile] | – | 193 to 204 °C | – | –
COc1cc2cc3c(Nc4ccc(F)c(Cl)c4)c(C#N)cnc3cc2cc1OCCCl [Example 185, 8-(2-Chloroethoxy)-4-(3-chloro-4-fluoroanilino)-7-methoxybenzo[g]quinoline-3-carbonitrile] | – | 137 to 159 °C | – | –
COc1cc2cc3ncc(C#N)c(Nc4ccc(OCc5ccccc5)c(Cl)c4)c3cc2cc1OCCCl [Example 186, 4-(4-Benzyloxy-3-chlorophenylamino)-7-(2-chloroethoxy)-8-methoxybenzo[g]quinoline-3-carbonitrile] | – | 182 to 185 °C | – | –
CCOC(=O)CN(CCOc1cc2cc3c(Nc4cc(OC)c(Cl)cc4C)c(C#N)cnc3cc2cc1OCC)CC(=O)OCC [Example 192, ({2[4-(4-Chloro-5-methoxy-2-methylphenylamino)-3-cyano-8-ethoxybenzo[g]quinoline-7-yloxy]-ethyl}-ethoxycarbonylmethyl-amino)-acetic acid ethyl ester] | – | 70 to 71 °C | – | –
CCOc1cc2cc3c(Nc4cc(OC)c(Cl)cc4C)c(C#N)cnc3cc2cc1OCCN(CC(N)=O)CC(N)=O [Example 194, 2-(Carbamoylmethyl-{2-[4-(4-chloro-5-methoxy-2-methylphenylamino)-3-cyano-7-ethoxybenzo[g]quinolin-8-yloxy]-ethyl}-amino)-acetamide] | – | 168 to 170 °C | – | > 10000
COc1cc(Nc2c(C#N)cnc3cc4cc(OC)c(OCCN5CCN(C)CC5)cc4cc23)c(Cl)cc1F [Example 201, 4-(2-Chloro-4-fluoro-5-methoxyanilino)-8-methoxy-7-[2-(4-methyl-1-piperazinyl)ethoxy]benzo[g]quinoline-3-carbonitrile] | – | 170 to 173 °C | – | 175
COc1cc(Nc2c(C#N)cnc3cc4cc(OC)c(OCCN5CCC(O)CC5)cc4cc23)c(Cl)cc1C [Example 207, 4-(2-Chloro-5-methoxy-4-methylanilino)-8-methoxy-7-[2-(4-hydroxy-1-piperidinyl)ethoxy]benzo[g]quinoline-3-carbonitrile] | – | 205 to 235 °C | – | 929
COc1cc(Nc2c(C#N)cnc3cc4cc(OCCN5CCN(C)CC5)c(OC)cc4cc23)c(Cl)cc1F [Example 211, 4-(2-Chloro-4-fluoro-5-methoxyanilino)-7-methoxy-8-[2-(4-methyl-1-piperazinyl)ethoxy]benzo[g]quinoline-3-carbonitrile] | – | 197 to 205 °C | – | 128
COc1cc2cc3c(Nc4ccc(Oc5ccccc5)c(Cl)c4)c(C#N)cnc3cc2cc1OCCN1CCOCC1 [Example 213, 4-(3-Chloro-4-phenoxyphenylamino)-7-methoxy-8-(2-morpholin-4-yl-ethoxy)benzo[g]quinoline-3-carbonitrile] | – | 190 to 194 °C | – | –
COc1cc2cc3ncc(C#N)c(Nc4ccc(Oc5ccccc5)c(Cl)c4)c3cc2cc1OCCN1CCOCC1 [Example 214, 4-(3-Chloro-4-phenoxyphenylamino)-8-methoxy-7-(2-morpholin-4-yl-ethoxy)benzo[g]quinoline-3-carbonitrile] | – | 251 to 253 °C | – | –

Other lines, results leading:

Src TF prolif % Inh ([1]; @ dose 0.22 μM) [%] | melting point | Src TF prolif % Inh ([1]; @ dose 10 μM) [%] | GI50 [1] [nM] | Structure (SMILES)
– | – | – | 15 | COc1cc(Nc2c(C#N)cnc3cc4cc(OCCN5CCOCC5)c(OC)cc4cc23)c(Cl)cc1Cl [Example 129, 4-(2,4-dichloro-5-methoxyanilino)-7-methoxy-8-[2-(4-morpholinyl)ethoxy]benzo[g]quinoline-3-carbonitrile]
– | 205 to 208 °C | – | 38 | COc1cc(Nc2c(C#N)cnc3cc4cc(OCCCN5CCOCC5)c(OC)cc4cc23)c(Cl)cc1Cl [Example 157, 4-(2,4-Dichloro-5-methoxyphenylamino)-7-methoxy-8-(3-morpholin-4-yl-propoxy)benzo[g]quinoline-3-carbonitrile]
– | 227 to 230 °C (dec.) | – | 1870 | COc1cc(Nc2c(C#N)cnc3nc4cc(OCCCl)c(OC)cc4cc23)c(Cl)cc1Cl [Example 172, 8-(2-Chloroethoxy)-4-(2,4-dichloro-5-methoxyanilino)-7-methoxybenzo[b][1,8]naphthyridine-3-carbonitrile]
– | 222 to 236 °C | – | – | COc1cc(Nc2c(C#N)cnc3cc4cc(OCCCl)c(OC)cc4cc23)c(Cl)cc1C [Example 182, 8-(2-Chloroethoxy)-4-(2-chloro-5-methoxy-4-methylphenylamino)-7-methoxybenzo[g]quinoline-3-carbonitrile]
– | 195 to 196 °C | – | 170 | CCOc1cc2cc3ncc(C#N)c(Nc4cc(OC)c(Cl)cc4C)c3cc2cc1OCCN1CCOCC1 [Example 190, 4-(4-Chloro-5-methoxy-2-methylanilino)-8-ethoxy-7-[2-(4-morpholinyl)ethoxy]benzo[g]quinoline-3-carbonitrile]
– | 201 to 203 °C | – | 22 | CCOc1cc2cc3c(Nc4cc(OC)c(Cl)cc4C)c(C#N)cnc3cc2cc1OCCN1CCOCC1 [Example 191, 4-(4-Chloro-5-methoxy-2-methylanilino)-7-ethoxy-8-[2-(4-morpholinyl)ethoxy]benzo[g]quinoline-3-carbonitrile]
– | 85 to 86 °C | – | – | CCOC(=O)CN(CCOc1cc2cc3ncc(C#N)c(Nc4cc(OC)c(Cl)cc4C)c3cc2cc1OCC)CC(=O)OCC [Example 193, ({2-[4-(4-Chloro-5-methoxy-2-methylphenylamino)-3-cyano-7-ethoxybenzo[g]quinoline-8-yloxy]-ethyl}-ethoxycarbonylmethylamino)-acetic acid ethyl ester]
– | 218 to 235 °C and 220 to 227 °C | – | 68 | COc1cc(Nc2c(C#N)cnc3cc4cc(OC)c(OCCN5CCN(C)CC5)cc4cc23)c(Cl)cc1C [Example 202, 4-(2-Chloro-5-methoxy-4-methylanilino)-8-methoxy-7-[2-(4-methyl 1-piperazinyl)ethoxy]benzo[g]quinoline-3-carbonitrile]
– | 237 to 242 °C | – | – | COc1cc2cc3c(Nc4ccc(F)c(Cl)c4)c(C#N)cnc3cc2cc1OCCN1CCOCC1 [Example 205, 4-(3-Chloro-4-fluoroanilino)-7-methoxy-8-[2-(4-morpholinyl)ethoxy]benzo[g]quinoline-3-carbonitrile]
– | 204 to 214 °C | – | 309 | COc1cc(Nc2c(C#N)cnc3cc4cc(OC)c(OCCN5CCOCC5)cc4cc23)c(Cl)cc1F [Example 209, 4-(2-Chloro-4-fluoro-5-methoxyanilino)-8-methoxy-7-[2-(4-morpholinyl)ethoxy]benzo[g]quinoline-3-carbonitrile]
– | 248 to 250 °C (dec.) | – | – | COc1cc(Nc2c(C#N)cnc3cc4cc(OCc5ccccc5)c(OC)cc4cc23)c(Cl)cc1F [Example 219, 8-(Benzyloxy)-4-[(2-chloro-4-fluoro-5-methoxyphenyl)amino]-7-methoxybenzo[g]quinoline-3-carbonitrile]
– | 239 to 242 °C (dec.) | – | – | COc1cc2cc3c(Nc4cc(OC)c(F)cc4Cl)c(C#N)cnc3cc2cc1O [Example 220, 4-[(2-Chloro-4-fluoro-5-methoxyphenyl)amino]-8-hydroxy-7-methoxybenzo[g]quinoline-3-carbonitrile]
